Laboratory results published in ChEMBL document CHEMBL3425402, “Discovery of β-D-2'-deoxy-2'-α-fluoro-4'-α-cyano-5-aza-7,9-dideaza adenosine as a potent nucleoside inhibitor of respiratory syncytial virus with excellent selectivity over mitochondrial RNA and DNA polymerases” (Bioorg Med Chem Lett, 2015).

Legend:
[1] = Cytotoxicity against human MT4 cells assessed as cell viability after 5 days by Cell-Titer Glo assay; assay type: cell-based
[2] = molecular target: DNA polymerase subunit gamma-1/gamma-2 (Homo sapiens) (UniProt P54098+Q9UHN1); test: Inhibition of human mitochondrial DNA polymerase gamma large subunit/DNA polymerase gamma accessory subunit using 32P-D19/D36 as DNA primer/template assessed as single nucleotide incorporation rate at 100 uM after 5 to 90 mins by PAGE analysis relative to thymidine NTP; assay type: protein assay
DNA polymerase subunit gamma-1/gamma-2 (Homo sapiens), sequence (P54098 whole entry, looked up): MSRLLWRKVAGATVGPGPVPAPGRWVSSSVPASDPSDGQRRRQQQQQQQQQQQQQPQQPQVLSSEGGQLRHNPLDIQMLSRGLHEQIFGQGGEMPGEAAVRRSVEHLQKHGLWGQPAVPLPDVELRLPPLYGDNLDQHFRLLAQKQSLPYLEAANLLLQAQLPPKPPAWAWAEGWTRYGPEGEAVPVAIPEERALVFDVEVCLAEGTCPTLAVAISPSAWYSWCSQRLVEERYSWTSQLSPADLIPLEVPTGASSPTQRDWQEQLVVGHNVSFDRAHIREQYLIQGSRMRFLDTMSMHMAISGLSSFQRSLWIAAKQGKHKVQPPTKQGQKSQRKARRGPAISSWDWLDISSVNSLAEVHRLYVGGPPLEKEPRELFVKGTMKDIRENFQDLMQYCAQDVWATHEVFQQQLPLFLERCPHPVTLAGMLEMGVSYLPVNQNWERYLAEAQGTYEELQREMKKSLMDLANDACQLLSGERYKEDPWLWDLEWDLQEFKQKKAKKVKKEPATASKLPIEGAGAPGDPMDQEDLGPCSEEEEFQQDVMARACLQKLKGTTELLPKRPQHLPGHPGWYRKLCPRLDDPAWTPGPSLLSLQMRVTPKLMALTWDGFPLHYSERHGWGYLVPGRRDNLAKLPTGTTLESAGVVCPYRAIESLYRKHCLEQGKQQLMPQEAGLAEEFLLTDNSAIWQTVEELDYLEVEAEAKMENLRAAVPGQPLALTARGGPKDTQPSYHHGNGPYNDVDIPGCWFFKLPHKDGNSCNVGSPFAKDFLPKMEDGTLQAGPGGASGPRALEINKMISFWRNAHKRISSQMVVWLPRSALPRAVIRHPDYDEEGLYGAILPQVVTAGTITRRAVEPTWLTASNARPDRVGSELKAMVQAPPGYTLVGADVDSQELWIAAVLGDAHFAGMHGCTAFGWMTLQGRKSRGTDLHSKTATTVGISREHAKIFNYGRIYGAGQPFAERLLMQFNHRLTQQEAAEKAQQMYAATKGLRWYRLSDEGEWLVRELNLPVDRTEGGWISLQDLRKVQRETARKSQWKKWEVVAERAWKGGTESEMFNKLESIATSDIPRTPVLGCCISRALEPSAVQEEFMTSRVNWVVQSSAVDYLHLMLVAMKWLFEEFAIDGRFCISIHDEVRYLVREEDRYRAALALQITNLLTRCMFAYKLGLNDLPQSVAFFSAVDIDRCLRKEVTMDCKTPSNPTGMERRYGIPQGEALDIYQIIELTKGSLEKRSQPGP
DNA polymerase subunit gamma-1/gamma-2 (Homo sapiens), sequence (Q9UHN1 whole entry, looked up): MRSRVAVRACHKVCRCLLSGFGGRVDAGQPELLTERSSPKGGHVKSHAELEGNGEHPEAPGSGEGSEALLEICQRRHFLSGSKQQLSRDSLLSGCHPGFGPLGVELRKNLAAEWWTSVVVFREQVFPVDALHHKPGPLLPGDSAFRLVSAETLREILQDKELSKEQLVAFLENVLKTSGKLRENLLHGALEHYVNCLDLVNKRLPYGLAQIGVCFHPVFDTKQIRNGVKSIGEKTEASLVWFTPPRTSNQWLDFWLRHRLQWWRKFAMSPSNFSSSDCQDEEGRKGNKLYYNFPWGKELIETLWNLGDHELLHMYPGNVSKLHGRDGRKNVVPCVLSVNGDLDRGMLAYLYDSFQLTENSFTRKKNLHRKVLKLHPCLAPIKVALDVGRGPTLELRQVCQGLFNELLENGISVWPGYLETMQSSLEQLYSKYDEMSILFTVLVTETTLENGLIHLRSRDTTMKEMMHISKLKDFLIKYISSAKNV

[3] = Antiviral activity against RSV A2 infected in human Hep2 cells assessed as protection against virus-induced cytopathic effect after 4 days by Cell-Titer Glo assay; assay type: functional, cell-based; settings: human respiratory syncytial virus, HEp-2, 96 h
[4] = Inhibition of RSV A2 RNA-dependent RNA polymerase expressed in human Hep2 cells using ATP, GTP, UTP, CTP and 1.5 uCi [alpha-32P] NTP as substrate assessed as reduction of total radiolabled transcript after 90 mins by agarose gel electrophoresis; set-up: species or system Human respiratory syncytial virus A2; settings: hep-2
[5] = molecular target: DNA-directed RNA polymerase, mitochondrial (Homo sapiens) (UniProt O00411); test: Inhibition of human mitochondrial RNA polymerase using 5'-32P-R12/D18 as RNA/DNA template assessed as single nucleotide incorporation rate at 500 uM after 0.17 to 30 mins by PAGE analysis
DNA-directed RNA polymerase, mitochondrial (Homo sapiens), sequence (O00411 whole entry): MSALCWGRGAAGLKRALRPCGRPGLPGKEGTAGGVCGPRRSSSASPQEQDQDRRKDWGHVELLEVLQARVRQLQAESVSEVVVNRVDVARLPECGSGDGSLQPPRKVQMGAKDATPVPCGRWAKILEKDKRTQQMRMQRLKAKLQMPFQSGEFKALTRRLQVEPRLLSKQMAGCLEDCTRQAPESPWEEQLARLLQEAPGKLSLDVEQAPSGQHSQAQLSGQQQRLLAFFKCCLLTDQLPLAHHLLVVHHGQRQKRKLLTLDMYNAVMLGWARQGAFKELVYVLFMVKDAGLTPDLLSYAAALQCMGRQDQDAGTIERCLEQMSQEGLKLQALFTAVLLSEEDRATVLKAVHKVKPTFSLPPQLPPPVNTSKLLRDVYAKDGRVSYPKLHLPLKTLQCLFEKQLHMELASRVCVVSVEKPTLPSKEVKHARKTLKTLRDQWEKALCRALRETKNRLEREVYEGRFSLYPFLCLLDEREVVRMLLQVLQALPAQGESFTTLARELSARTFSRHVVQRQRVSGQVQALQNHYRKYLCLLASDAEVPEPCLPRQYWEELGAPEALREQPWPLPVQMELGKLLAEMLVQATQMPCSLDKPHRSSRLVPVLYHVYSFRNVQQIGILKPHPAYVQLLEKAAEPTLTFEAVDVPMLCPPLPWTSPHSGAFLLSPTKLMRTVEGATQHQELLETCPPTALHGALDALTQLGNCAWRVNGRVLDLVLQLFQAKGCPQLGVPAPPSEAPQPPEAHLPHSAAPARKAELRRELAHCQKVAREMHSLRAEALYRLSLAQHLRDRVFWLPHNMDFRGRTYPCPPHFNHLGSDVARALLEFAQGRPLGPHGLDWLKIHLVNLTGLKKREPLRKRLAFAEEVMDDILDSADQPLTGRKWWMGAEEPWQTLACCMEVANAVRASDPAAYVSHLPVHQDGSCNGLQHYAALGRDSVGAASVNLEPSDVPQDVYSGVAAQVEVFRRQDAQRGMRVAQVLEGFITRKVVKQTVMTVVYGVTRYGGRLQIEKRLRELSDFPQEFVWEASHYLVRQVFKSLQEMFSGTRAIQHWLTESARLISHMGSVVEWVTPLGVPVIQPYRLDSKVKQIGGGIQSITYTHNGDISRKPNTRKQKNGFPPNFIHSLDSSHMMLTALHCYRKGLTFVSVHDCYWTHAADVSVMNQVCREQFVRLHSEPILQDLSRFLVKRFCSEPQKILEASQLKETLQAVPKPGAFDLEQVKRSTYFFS

Structure (SMILES) | CC50 at 120 h [1] | inhibition [2] | EC50 [3] | IC50 [4] | inhibition [5]
Nc1nc2c(ncn2[C@@H]2O[C@H](CO)[C@@H](O)[C@H]2F)c(=O)[nH]1 | > 49 µM | – | – | – | –
C=C[C@]1(CO)O[C@@H](n2cnc3c(=O)[nH]c(N)nc32)[C@H](F)[C@@H]1O | 46 µM | 1% | 17 µM | 12 µM | 1%
Nc1ncnn2c([C@@H]3O[C@H](CO)[C@@H](O)[C@H]3F)ccc12 | 26 µM | 2.5% | > 100 µM | 0.6 µM | 22%
Nc1ccn([C@@H]2O[C@@](CO)(CCl)[C@@H](O)[C@H]2F)c(=O)n1 [ALS-8112] | 21 µM | 41% | 0.92 µM | 1 µM | 0%
[N-]=[N+]=N[C@]1(CO)O[C@@H](n2ccc(N)nc2=O)[C@H](F)[C@@H]1O | 23 µM | 7% | 3.5 µM | 0.3 µM | 3%
Nc1ccn([C@@H]2O[C@H](CO)[C@@H](O)[C@H]2F)c(=O)n1 | 3.8 µM | 17% | > 200 µM | 1.8 µM | 20%
N#C[C@]1(CO)O[C@@H](n2cnc3c(=O)[nH]c(N)nc32)[C@H](F)[C@@H]1O | 24 µM | 3% | 10 µM | 2.6 µM | 0%
C=C[C@]1(CO)O[C@@H](n2ccc(N)nc2=O)[C@H](F)[C@@H]1O | > 57 µM | 4.9% | > 50 µM | 0.6 µM | 1.2%
O=c1[nH]c(=O)n([C@@H]2O[C@H](CO)[C@@H](O)[C@@H]2F)cc1I | – | 99% | – | – | –
CC[C@]1(CO)O[C@@H](c2ccc3c(N)ncnn23)[C@H](F)[C@@H]1O | > 114 µM | 5.7% | 41 µM | 0.5 µM | 0.1%
CC(C)C(=O)OC[C@@]1(N=[N+]=[N-])O[C@@H](n2ccc(N)nc2=O)[C@H](OC(=O)C(C)C)[C@@H]1OC(=O)C(C)C | – | – | – | – | 112%
C=C[C@]1(CO)O[C@@H](c2ccc3c(N)ncnn23)[C@H](F)[C@@H]1O | > 114 µM | 10% | 10 µM | 0.6 µM | 2.9%
CC[C@]1(CO)O[C@@H](n2ccc(N)nc2=O)[C@H](F)[C@@H]1O | > 57 µM | 6% | 8 µM | 0.6 µM | 0%
Nc1nc(O)c2ncn([C@@H]3O[C@H](CO)[C@@H](O)[C@H]3F)c2n1 | – | 34% | > 200 µM | 6.6 µM | 21%
C#C[C@]1(CO)O[C@@H](n2cnc3c(=O)[nH]c(N)nc32)[C@H](F)[C@@H]1O | 39 µM | 5% | 26 µM | 1.8 µM | 18%
Nc1ncnc2c1ncn2[C@@H]1O[C@H](CO)[C@@H](O)[C@H]1F [2'-BETA-FLUORO-2',3'-DEOXYADENOSINE] | – | 8% | > 50 µM | 7.7 µM | 24%
O=c1ccn([C@@H]2O[C@H](CO)[C@@H](O)[C@H]2F)c(=O)[nH]1 | – | 11% | > 100 µM | 3.5 µM | 37%
N#C[C@]1(CO)O[C@@H](c2ccc3c(N)ncnn23)[C@H](F)[C@@H]1O | > 114 µM | < 0.1% | 2 µM | 0.086 µM | < 0.1%
